Experimental data: US11707527B2, “Nanoscale drug carrier capable of passing through blood-brain barrier” (KUNSHAN XINYUNDA BIOTECH CO., LTD., priority 2017, dated 2023)

System: glioma model mice
Experiment: Therapy of glioma-bearing mice, survival
Details: doxorubicin 1 mg/Kg at 9d, 12d and 15d after tumor cell inoculation
Protocol: An animal therapy experiment was conducted by the inventor to glioma-bearing mice (same mice as in Example 4). In the experiment, glioma model mice (same mice as in Example 4) were divided into two groups, 5 mice for each group. And then glioma model mice were treated with doxorubicin (1 mg/Kg) respectively after tumor cell inoculation for 9d, 12d and 15d.

COc1cccc2c1C(=O)c1c(O)c3c(c(O)c1C2=O)C[C@@](O)(C(=O)CO)C[C@@H]3O[C@H]1C[C@H](N)[C@H](O)[C@H](C)O1 [Free-Dox, doxorubicin]
Mean survival time / survival period: 15 days
